Literature values as cited in US8476466B2 (priority 2008, dated 2013).

Tested on: mice
Settings: mouse, in vivo

Molecule | 50% lethal dose (LD50, in mice) [mg/kg]
C[As+](C)(C)CC(=O)[O-] [arsenobetaine] | 10000
arsenic acid | 14 to 18
